Results taken from article PMC8950173 (Pharmaceuticals, 2022).

Experiments:
[1] = In vivo metabolism (radio-RP-HPLC and radio-MLC of plasma, brain, urine); design: species or system CD-1 mice; settings: 30 min p.i.
Procedure: The radiotracer [^18F]BA3 (~30 MBq in 200 µL isotonic saline) was administered via the tail vein in non-anesthetized female CD-1 mice (n = 2). At 30 min p.i., the animals were anesthetized by isoflurane inhalation and blood was sampled from the retro-orbital plexus. After cervical dislocation, urine was obtained and the brain was isolated. Plasma was obtained by centrifugation of the blood sample (8000× g, 2 min), and the brain was homogenized in ~1 mL distilled water on ice using a glass/PTFE Potter Homogenizer (Potter S Homogenizer, B. Braun Melsungen AG, Melsungen, Germany).
Protein precipitation was performed by addition of an ice-cold MeCN/H2O mixture (9:1, v/v) in a ratio of 4:1 (v/v) of organic solvent to plasma or brain homogenate, respectively. The samples were vortexed for 3 min, equilibrated on ice for 3 min, and centrifuged for 10 min at 10,000 rpm. The precipitates were washed with 100 μL of the solvent mixture and subjected to the same procedure. The combined supernatants were concentrated at 70 °C under argon flow to a final volume of approximately 100 μL and analysed by analytical radio-RP-HPLC with a gradient system (see quality control section). The peak corresponding to the radiotracer in the radio-chromatogram was identified by co-injecting the sample with the reference compound BA3. To determine the percentage of activity in the supernatants compared with total activity, aliquots of each step as well as the precipitates were quantified by an automated gamma counter (1480 WIZARD, Perkin Elmer, Turku, Finland). For plasma and brain samples recoveries of 97% and 95%, respectively, of total activity were obtained.
For the preparation of the MLC samples, 20 µL of mouse plasma was dissolved in 200 µL of an aqueous 200 mM sodium dodecyl sulfate (SDSaq) solution and injected into the MLC system. For brain samples, 400 µL brain homogenate was dissolved in 800 µL 200 mM SDSaq, heated for 5 min at 70 °C and centrifuged for 5 min at 10,000 rpm. The MLC system was built up as earlier described. Separations were performed by using a Reprosil-Pur C18-AQ column (250 × 4.6 mm, 10 µm + 10 mm pre-column) and an eluent mixture of EtOH/100 mM SDSaq/25 mM (NH4)2HPO4 in gradient mode (0–10 min at 100% 100 mM SDSaq, 10–15 min up to 10% EtOH, 15–20 min at 10% EtOH, 20–21 min up to 100% 100 mM SDSaq; 21–30 min at 100% 100 mM SDSaq) at a flow rate of 1.0 mL/min.

[2] = Dynamic PET/MR scan, brain uptake, baseline; type: in vivo
Procedure: For the time of the experiments, female CD-1 mice (n = 6; 8–15 weeks; 29–43 g) were kept in a dedicated climatic chamber with free access to water and food under a 12:12 h dark:light cycle at a constant temperature (24 °C). The animals were anaesthetized (Anaesthesia Unit U-410, agntho’s, Lidingö, Sweden) with isoflurane (2.0%, 300 mL/min) delivered in a 60% oxygen/40% air mixture (Gas Blender 100 Series, MCQ instruments, Rome, Italy) and their body temperature maintained at 37 °C with a thermal bed system. For baseline studies [^18F]BA3 was injected into the tail vein (n = 2; 6.0 ± 0.6 MBq in 150 µL isotonic saline; 9.2 ± 0.7 nmol/kg; Am: 21 GBq/μmol, EOS) followed by a dynamic 60 min PET/MR scan (Mediso nanoScan®, Budapest, Hungary). Permeability-glycoprotein efflux transporter studies consisted in pre-treatment via i.v. injection of cyclosporine A (50 mg/kg in NaCl/DMSO/kolliphor, 7:1:2, v/v; n = 2) or of vehicle (NaCl/DMSO/kolliphor, 7:1:2, v/v; n = 2) 30 min prior to [^18F]BA3 (6.0 ± 0.9 MBq; 4.9 ± 0.7 nmol/kg; Am: 32–37 GBq/μmol, EOS). Each PET image was corrected for random coincidences, dead time, scatter and attenuation (AC), based on a whole body (WB) MR scan. The reconstruction parameters for the list mode data were 3D-ordered subset expectation maximization (OSEM), 4 iterations, 6 subsets, energy window: 400–600 keV, coincidence mode: 1–5, ring difference: 81. The mice were positioned prone in a special mouse bed (heated up to 37 °C), with the head fixed to a mouth piece for the anaesthetic gas supply with isoflurane in 40% air and 60% oxygen. The PET data were collected by a continuous WB scan during the entire investigation. Following the 60 min PET scan a T1 weighted WB gradient echo sequence (TR/TE: 20/6.4 ms, NEX: 1, FA: 25, FOV: 64 × 64 mm, Matrix: 128 × 128, STh: 0.5 mm) was performed for AC and anatomical orientation. […]. The respective brain regions were identified using the mouse brain atlas template Ma-Benveniste-Mirrione-FDG. The activity data are expressed as mean SUV of the overall ROI.

[3] = biological target: human recombinant HDAC3/NcoR2 (Homo sapiens, UniProt O15379); assay: Inhibition assay HDAC3 (fluorogenic substrate ZMAL); type: biochemical; settings: HDAC1 over HDAC3, from IC50 values
Chain of human recombinant HDAC3/NcoR2 (O15379 whole entry): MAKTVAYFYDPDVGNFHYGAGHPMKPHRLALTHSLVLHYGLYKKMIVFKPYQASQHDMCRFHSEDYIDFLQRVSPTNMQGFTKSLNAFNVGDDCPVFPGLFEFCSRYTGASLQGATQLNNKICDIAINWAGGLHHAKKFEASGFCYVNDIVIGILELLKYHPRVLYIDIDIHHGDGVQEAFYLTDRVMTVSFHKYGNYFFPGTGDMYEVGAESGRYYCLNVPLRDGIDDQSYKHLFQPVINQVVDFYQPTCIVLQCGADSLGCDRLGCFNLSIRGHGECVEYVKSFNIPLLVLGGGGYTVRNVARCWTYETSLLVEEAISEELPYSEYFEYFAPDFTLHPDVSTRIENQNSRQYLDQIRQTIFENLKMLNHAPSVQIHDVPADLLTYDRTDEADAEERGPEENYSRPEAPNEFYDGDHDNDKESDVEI
Chain of human recombinant HDAC3/NcoR2 (Q9Y618 395-489 partner limits assumed): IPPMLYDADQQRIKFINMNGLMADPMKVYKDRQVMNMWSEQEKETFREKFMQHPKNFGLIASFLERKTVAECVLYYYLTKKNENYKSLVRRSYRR
Procedure: (§1) In vitro inhibitory activities against HDAC1−3 and HDAC6 were measured as previously published with minor modifications. […] Subsequently, 50 µL trypsin solution (0.4 mg/mL trypsin in buffer: 50 mM Tris−HCl, pH = 8.0, 100 mM NaCl) was added, followed by additional 30 min of incubation at 37 °C. […] All compounds were tested at least twice in duplicates.

human recombinant HDAC2 = biological target: T1, human recombinant HDAC2 (Homo sapiens, UniProt Q92769); assay: Inhibition assay HDAC2 (fluorogenic substrate ZMAL); type: biochemical; settings: 60 min preincubation at 25 °C
T1 construct: purchased BPS Bioscience Inc. 50052
T1 sequence (Q92769 whole entry): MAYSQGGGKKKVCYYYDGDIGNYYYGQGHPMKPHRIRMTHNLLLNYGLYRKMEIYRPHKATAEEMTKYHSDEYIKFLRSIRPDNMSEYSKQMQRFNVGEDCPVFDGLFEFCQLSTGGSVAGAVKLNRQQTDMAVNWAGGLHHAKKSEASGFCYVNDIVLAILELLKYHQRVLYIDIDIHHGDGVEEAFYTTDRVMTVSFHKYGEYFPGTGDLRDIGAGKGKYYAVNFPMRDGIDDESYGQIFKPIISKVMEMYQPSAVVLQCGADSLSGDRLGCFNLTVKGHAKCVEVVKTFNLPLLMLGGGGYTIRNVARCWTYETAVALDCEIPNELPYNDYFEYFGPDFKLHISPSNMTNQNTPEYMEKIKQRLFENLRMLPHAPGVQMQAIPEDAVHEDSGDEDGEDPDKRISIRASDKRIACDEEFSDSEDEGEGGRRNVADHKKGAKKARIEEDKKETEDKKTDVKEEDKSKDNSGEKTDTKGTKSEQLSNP
Procedure: as §1

[4] = radio-RP-HPLC, individual values of 2 mice

CC([18F])C(=O)NCc1ccc(C(=O)Nc2cc(-c3ccsc3)ccc2N)cc1 (stereo not drawn) [[^18F]BA3]
intact radiotracer, share of total activity in brain ([1]; radio-MLC, mean, n = 2): ~24% | intact radiotracer, share of total activity in plasma ([1]; radio-MLC, mean, n = 2): about 6% | intact radiotracer in urine ([1]; radio-RP-HPLC and radio-MLC): not detected | Brain [%] of activity [1, 4]: 20 / 23 | Plasma [%] of activity [1, 4]: 3 / 7 | share of total activity in brain ([1]; radio-RP-HPLC, mean, n = 2): 21% | share of total activity in plasma ([1]; radio-RP-HPLC, mean, n = 2): about 5% | brain peak standardized uptake value ([2]; at 0.8 min, i.v.): ~ 0.16 SUV | brain uptake plateau ([2]; at 15 min, i.v.): ~ 0.22 SUV | brain uptake after washout ([2]; at 60 min after i.v. administration): ~ 0.16 SUV | specificity ratio (HDAC1/HDAC3) [3]: > 230 | IC50 (human recombinant HDAC2): 39.9 ± 3.2 nM
